Assay results published in patent US4621077A, “Pharmacologically active biphosphonates, process for the preparation thereof and pharmaceutical compositions therefrom” (Istituto Gentili S.p.A., priority 1982, dated 1986).
“Also recorded” adds a separate entry of the source. Read-outs that look alike come from different tables or passages of the source.

How the values were obtained:
skull cells = experiment: cells; type: cell-based, Wistar rats
Procedure: (§1) Cellular culture: the cells are cultured according to the method described by Fast et al, (Biochem. J. 172, 97-107 (1978)). By way of summary, the skulls removed from Wistar rats, one day old, are digested with collagenase. The cells set free are placed on a plate with concentration of 200,000 cells per cc of medium in disks "clusters" suitable for culture, the plates having 24 wells of 1.6 cm in diameter containing 0.5 cc of medium. The cells are cultivated in the essential minimum medium containing 10% of foetal calf serum in an atmosphere of 5% CO2 at 37° up to the eighth day. The bisphosphonates are added on the first day up to the end of the experiment. The medium is changed on the first, fourth and seventh day.
The cells are counted with a Coulter counter after they have been set free from the disks by digestion with a mixture of collagenase and trypsin.

[1] = system: skull cells (lactate production); experiment: cells; type: cell-based, Wistar rats
Procedure: as §1
On the seventh day, the medium is changed and the cells are incubated for 16 hours. The lactate produced during this period is measured in an extract in HClO4 of the medium using lactatodehydrogenase.

injection sites / skin = experiment: Necrosis at the injection sites in rats (local skin toxicity)
From the text: The symbol "x" represents a conventional score, that is "x" meand slight necrosis, "xx" means severe necrosis, "xxx" means very severe necrosis.

in vivo = conditions: mouse, Swiss mice, read-out: DL50 (the source's name)
Procedure: For this study Swiss mice, both male and female, have been utilized: during the experiment, the animals are fed according to the method with Altromin in the form of tablets. For the oral and intraperitoneal administration, there are used 5% gum arabic solutions while saline solutions of pH 4 are used for the intravenous injections.
The preliminary values of DL50 are calculated according to a graphic method.

[2] = system: bone reabsorption and mineralization (tibia, trabecular metaphysis); type: in vivo, Wistar rats; conditions: for effect on bone reabsorption, in words: rat, in vivo
Procedure: Groups of five Wistar rats of weight 180-200 grams are treated for a period of seven days with 0.1, 1.0 and 10 mg of P/kg of the following biphosphonic acids:
The animals kept as a control were administered the solvent with NaCl. All the treatments were carried out by the subcutaneous route. […] The animals were fed with Altromine 1314 containing 1.1 g/100 g P and 250 IU/100 g of vitamin D3. On the eighth day, the animals were killed and the tibia was removed and fixed in 50% ethanol. The tibiae were then dehydrated in increasing concentration of ethanol and allowed to soak in methylmethacrylate after the addition of Plastoid N. Frontal sections were removed and cut to a thickness of 70-80 μm and then the sections were submitted to microradiography. This procedure permitted to evaluate the density of the mineral in the trabecular metaphysis according to the method of Shenk et al., Calc. Tiss. Res. 11, 196-214, 1973).
One animal per group has been evaluated.

[3] = 37° C., two days, control 29, prior to incubation 114.7
Procedure: A model system is used to evaluate the ability of the phosphonates to inhibit the formation of crystals in inorganic solutions. Three solutions are prepared according to Fleisch.
The pH is brought to 7.4 by means of potassium hydroxide. The concentration of Ca^++ was 6.7 mg%, a level similar to the calcium in blood which has been subjected to untrafiltration and the concentration of the inorganic phosphate Pi give a product Ca^++ ×Pi=80. The solution was analyzed for Ca^++ and Pi and was distributed in Erlenmeyer flasks 12 cc each. The flasks were divided in groups as follows:
and then they are incubated under stirring at 37° C. for two days.
At the end of incubation, the solutions are passed through "millipore filters" for the purpose of retaining the ctystals which are formed during the incubation; the filtrate then is analyzed for Ca^++ and Pi. The results are also reported in Table 2 as the product of Ca^++ x Pi in the solution at the end of the experiment.

[4] = system: bone reabsorption (metaphyseal bone density); experiment: Metaphyseal bone density / inhibition of bone reabsorption in rats treated for 7 days; type: in vivo; conditions: 7 days, rats
[5] = Rattus norvegicus, read-out: Effect on the cellular number ± S.E.M.
[6] = Rattus norvegicus, 16 h, read-out: Effect on the production of lactate ± S.E.M.
[7] = 0.01 mg P/kg s.c., s.c. NaCl controls 29.72
[8] = 0.1 mg P/kg s.c., s.c. NaCl controls 29.72
[9] = 1.0 mg P/kg s.c., s.c. NaCl controls 29.72
[10] = 2.0 mg P/kg p.o., p.o. NaCl controls 28.45

NCCCCCC(O)(P(=O)(O)O)P(=O)(O)O [AHEX BP, 6-amino-1-hydroxyhexane-1,1-biphosphonic acid]
activity at 2.5 µM (skull cells; [5]): 93.3 ± 3%
activity at 25 µM (skull cells; [5]): 95.2 ± 2.2%
activity at 250 µM (skull cells; Rattus norvegicus, 250 μM, read-out: Effect on the cellular number ± S.E.M.): 87 ± 3.4%
activity at 2.5 µM [1, 6]: 109 ± 6%
activity at 25 µM [1, 6]: 108 ± 4.5%
activity at 250 µM ([1]; Rattus norvegicus, 16 h, 250 μM, read-out: Effect on the production of lactate ± S.E.M.): 165 ± 7.7%
necrosis at the injection sites (injection sites / skin; 0.01 mg P/kg, 1 day): .0.
necrosis at the injection sites (injection sites / skin; 0.01 mg P/kg, 2 day): .0.
necrosis at the injection sites (injection sites / skin; 0.01 mg P/kg, 3 day): .0.
necrosis at the injection sites (injection sites / skin; 0.01 mg P/kg, 4 day): .0.
necrosis at the injection sites (injection sites / skin; 0.01 mg P/kg, 5 day): .0.
necrosis at the injection sites (injection sites / skin; 0.01 mg P/kg, 6 day): .0.
necrosis at the injection sites (injection sites / skin; 0.01 mg P/kg, 7 day): .0.
necrosis at the injection sites (injection sites / skin; 0.1 mg P/kg, 1 day): .0.
necrosis at the injection sites (injection sites / skin; 0.1 mg P/kg, 2 day): .0.
necrosis at the injection sites (injection sites / skin; 0.1 mg P/kg, 3 day): .0.
necrosis at the injection sites (injection sites / skin; 0.1 mg P/kg, 4 day): .0.
necrosis at the injection sites (injection sites / skin; 0.1 mg P/kg, 5 day): .0.
necrosis at the injection sites (injection sites / skin; 0.1 mg P/kg, 6 day): .0.
necrosis at the injection sites (injection sites / skin; 0.1 mg P/kg, 7 day): .0.
necrosis at the injection sites (injection sites / skin; 1 mg P/kg, 1 day): .0.
necrosis at the injection sites (injection sites / skin; 1 mg P/kg, 2 day): .0.
necrosis at the injection sites (injection sites / skin; 1 mg P/kg, 3 day): .0.
necrosis at the injection sites (injection sites / skin; 1 mg P/kg, 4 day): .0.
necrosis at the injection sites (injection sites / skin; 1 mg P/kg, 5 day): .0.
necrosis at the injection sites (injection sites / skin; 1 mg P/kg, 6 day): .0.
necrosis at the injection sites (injection sites / skin; 1 mg P/kg, 7 day): .0.
necrosis at the injection sites (injection sites / skin; 10 mg P/kg, 1 day): .0.
necrosis at the injection sites (injection sites / skin; 10 mg P/kg, 2 day): .0.
necrosis at the injection sites (injection sites / skin; 10 mg P/kg, 5 day): xxx
necrosis at the injection sites (injection sites / skin; 10 mg P/kg, 6 day): xxx
necrosis at the injection sites (injection sites / skin; 10 mg P/kg, 7 day): xxx
death of animals (injection sites / skin; 10 mg P/kg, 8 day): animals died spontaneously
LD50 (in vivo; ip): 125 mg/kg
LD50 (in vivo; iv): 75 mg/kg
LD50 (in vivo; po, os): > 2000 mg/kg
effect on mineralization, in words ([2]; 10 mg of P/kg / high dosage where stated): strong inhibition of mineralization; also recorded: exhibits high inhibition
effect on bone reabsorption, in words [2]: active on the reabsorption with a result slightly superior to Cl2 MBP
product Ca++ × Pi in solution after incubation ([3]; 0.05 μM): 30.0
product Ca++ × Pi in solution after incubation ([3]; 0.25 μM): 37.5
product Ca++ × Pi in solution after incubation ([3]; 0.5 μM): 59.6
product Ca++ × Pi in solution after incubation ([3]; 2.5 μM): 92.6
product Ca++ × Pi in solution after incubation ([3]; 5.0 μM): 95.3
metaphysical density [4, 7]: 38.12 % volume of calcified tissue
metaphysical density [4, 8]: 46.96 % volume of calcified tissue
metaphysical density [4, 9]: 54.93 % volume of calcified tissue
metaphysical density [4, 10]: 34.69 % volume of calcified tissue

NCCCCC(O)(P(=O)(O)O)P(=O)(O)O [AHPE BP, 5-amino-1-hydroxypentan-1,1-biphosphonic acid]
Effect on the cellular number ± S.E.M. (skull cells; 250 μM): dead cells
activity at 2.5 µM (skull cells; [5]): 103 ± 2.8%
activity at 25 µM (skull cells; [5]): 42.6 ± 5.1%
Effect on the production of lactate ± S.E.M. ([1]; 250 μM): dead cells
activity at 2.5 µM [1, 6]: 93.4 ± 3%
activity at 25 µM [1, 6]: 354 ± 27.7%
necrosis at the injection sites (injection sites / skin; 0.01 mg P/kg, 1 day): .0.
necrosis at the injection sites (injection sites / skin; 0.01 mg P/kg, 2 day): .0.
necrosis at the injection sites (injection sites / skin; 0.01 mg P/kg, 3 day): .0.
necrosis at the injection sites (injection sites / skin; 0.01 mg P/kg, 4 day): .0.
necrosis at the injection sites (injection sites / skin; 0.01 mg P/kg, 5 day): .0.
necrosis at the injection sites (injection sites / skin; 0.01 mg P/kg, 6 day): .0.
necrosis at the injection sites (injection sites / skin; 0.01 mg P/kg, 7 day): .0.
necrosis at the injection sites (injection sites / skin; 0.1 mg P/kg, 1 day): .0.
necrosis at the injection sites (injection sites / skin; 0.1 mg P/kg, 2 day): .0.
necrosis at the injection sites (injection sites / skin; 0.1 mg P/kg, 3 day): .0.
necrosis at the injection sites (injection sites / skin; 0.1 mg P/kg, 4 day): .0.
necrosis at the injection sites (injection sites / skin; 0.1 mg P/kg, 5 day): .0.
necrosis at the injection sites (injection sites / skin; 0.1 mg P/kg, 6 day): .0.
necrosis at the injection sites (injection sites / skin; 0.1 mg P/kg, 7 day): .0.
necrosis at the injection sites (injection sites / skin; 1 mg P/kg, 1 day): .0.
necrosis at the injection sites (injection sites / skin; 1 mg P/kg, 2 day): .0.
necrosis at the injection sites (injection sites / skin; 1 mg P/kg, 3 day): .0.
necrosis at the injection sites (injection sites / skin; 1 mg P/kg, 4 day): .0.
necrosis at the injection sites (injection sites / skin; 1 mg P/kg, 5 day): .0.
necrosis at the injection sites (injection sites / skin; 1 mg P/kg, 6 day): .0.
necrosis at the injection sites (injection sites / skin; 1 mg P/kg, 7 day): .0.
necrosis at the injection sites (injection sites / skin; 10 mg P/kg, 1 day): xxx
necrosis at the injection sites (injection sites / skin; 10 mg P/kg, 2 day): xxx
LD50 (in vivo; ip): 75 mg/kg
LD50 (in vivo; iv): 85 mg/kg
LD50 (in vivo; po, os): 1500 mg/kg
effect on bone reabsorption, in words [2]: the most active in inhibiting the bone reabsorption
toxicity during the bone reabsorption experiment ([2]; s.c., 10 mg of P/kg / higher dosage): Experiment interrupted due to acute toxicity; also recorded: a toxicity at the higher dosage
product Ca++ × Pi in solution after incubation ([3]; 0.05 μM): 36.7
product Ca++ × Pi in solution after incubation ([3]; 0.25 μM): 37.1
product Ca++ × Pi in solution after incubation ([3]; 0.5 μM): 68.6
product Ca++ × Pi in solution after incubation ([3]; 2.5 μM): 94.0
product Ca++ × Pi in solution after incubation ([3]; 5.0 μM): 97.5
metaphysical density [4, 7]: 37.85 % volume of calcified tissue
metaphysical density [4, 8]: 50.44 % volume of calcified tissue
metaphysical density [4, 9]: 56.47 % volume of calcified tissue
metaphysical density [4, 10]: 38.70 % volume of calcified tissue
